{
  "source": "patent US10610528B2",
  "about": "“Solid oral film dosage forms and methods for making same” (Intelgenx Corp., priority 2009, dated 2020)",
  "origin": "cited, not measured here",
  "data": [
    {"smiles": "CN1CC(=O)N2[C@H](c3ccc4c(c3)OCO4)c3[nH]c4ccccc4c3C[C@@H]2C1=O", "note": "[Tadalafil]", "values": [
      {"measurement": "Solubility in water", "value": "practically insoluble in water"}
    ]}
  ]
}
